Measured values reported in PubChem BioAssay AID248 (DTP/NCI, 2004).
Several values for one entry are separate records, joined by “and”; a condition that tells them apart may be missing. Equal entries are not always repeated. Toxic doses and inconclusive results are not listed. Cut-off read from the data, not from the text of the source: active = T/C of 150% or more; inactive = T/C below 125%.

System: L1210 leukemia ip in BDF1 mice, survival T/C
Experiment: NCI In Vivo Anticancer Drug Screen. Data for tumor model L1210 Leukemia (intraperitoneal) in B6D2F1 (BDF1) mice
Settings: endpoint: mean survival time, higher = longer survival
Procedure, shortened: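 Value reflects the ratio of survival in compound-treated mice to survival in vehicle-treated controls, with both groups carrying the same transplanted tumor.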

[1] = dose: 100.0 mg/kg/injection, schedule: Q01DX009 (ip), vehicle: Klucel (hydroxypropylcellulose) (HPC)
[2] = dose: 100.0 mg/kg/injection, schedule: Q01DX009 (ip), vehicle: saline
[3] = dose: 200.0 mg/kg/injection, schedule: Q01DX009 (ip), vehicle: saline
[4] = dose: 100.0 mg/kg/injection, schedule: Q01DX001 (ip), vehicle: carboxymethylcellulose (CMC)
[5] = dose: 200.0 mg/kg/injection, schedule: Q01DX001 (ip), vehicle: carboxymethylcellulose (CMC)
[6] = dose: 400.0 mg/kg/injection, schedule: Q01DX001 (ip), vehicle: carboxymethylcellulose (CMC)
[7] = dose: 100.0 mg/kg/injection, schedule: Q04DX003 (ip), vehicle: saline with Tween-80
[8] = dose: 200.0 mg/kg/injection, schedule: Q04DX003 (ip), vehicle: saline with Tween-80
[9] = dose: 400.0 mg/kg/injection, schedule: Q04DX003 (ip), vehicle: saline with Tween-80
[10] = dose: 100.0 mg/kg/injection, schedule: Q04DX003 (ip), vehicle: Klucel (hydroxypropylcellulose) (HPC)
[11] = dose: 200.0 mg/kg/injection, schedule: Q01DX009 (ip), vehicle: Klucel (hydroxypropylcellulose) (HPC)
[12] = dose: 200.0 mg/kg/injection, schedule: Q04DX003 (ip), vehicle: Klucel (hydroxypropylcellulose) (HPC)
[13] = dose: 400.0 mg/kg/injection, schedule: Q01DX009 (ip), vehicle: Klucel (hydroxypropylcellulose) (HPC)
[14] = dose: 400.0 mg/kg/injection, schedule: Q04DX003 (ip), vehicle: Klucel (hydroxypropylcellulose) (HPC)

Measured: T/C

CC1OC(=O)C(C)(Br)OC1=O (stereo not given)
inactive: dose: 100.0 mg/kg/injection, schedule: Q01DX001 (ip), vehicle: acetone 93 % of control | dose: 200.0 mg/kg/injection, schedule: Q01DX001 (ip), vehicle: acetone 104 % of control

Cc1c(C#N)c2n(c1C)CCN2
inactive: dose: 25.0 mg/kg/injection, schedule: Q01DX009 (ip), vehicle: Klucel (hydroxypropylcellulose) (HPC) 105 % of control | dose: 50.0 mg/kg/injection, schedule: Q01DX009 (ip), vehicle: Klucel (hydroxypropylcellulose) (HPC) 97 % of control | dose: 100.0 mg/kg/injection, schedule: Q01DX001 (ip), vehicle: Klucel (hydroxypropylcellulose) (HPC) 91 % of control | [1] 94 % of control

Cc1cc(NC(=O)NCc2ccc(N)cc2)ccc1S(=O)(=O)F
inactive: [2] 95 % of control | dose: 100.0 mg/kg/injection, schedule: Q04DX003 (ip), vehicle: saline 100 % of control | [3] 114 % of control | dose: 200.0 mg/kg/injection, schedule: Q04DX003 (ip), vehicle: saline 96 % of control | dose: 400.0 mg/kg/injection, schedule: Q01DX009 (ip), vehicle: saline 93 % of control | dose: 400.0 mg/kg/injection, schedule: Q04DX003 (ip), vehicle: saline 100 % of control

CCCCCCCCCCN=C(N)N/C(N)=N/S(=O)(=O)c1ccc(OCCC)cc1
inactive: dose: 100.0 mg/kg/injection, schedule: Q04DX002 (ip), vehicle: saline with Tween-80 100 % of control | dose: 200.0 mg/kg/injection, schedule: Q04DX002 (ip), vehicle: saline with Tween-80 110 % of control | dose: 400.0 mg/kg/injection, schedule: Q04DX002 (ip), vehicle: saline with Tween-80 107 % of control

Cc1nc(N)[nH]c(=O)c1CCCNS(=O)(=O)c1ccc(C(=O)CBr)cc1
inactive: [4] 93 % of control | [5] 87 % of control | [6] 96 % of control

CCN(CC)CCOC(=O)c1ccc(N=C=S)cc1
inactive: dose: 12.5 mg/kg/injection, schedule: Q01DX009 (ip), vehicle: saline 102 % of control | dose: 25.0 mg/kg/injection, schedule: Q01DX009 (ip), vehicle: saline 100 % of control | dose: 50.0 mg/kg/injection, schedule: Q01DX009 (ip), vehicle: saline 96 % of control

CC(C(=O)O)N1C(=O)C2C3C=CC(C3)C2C1=O (stereo not given)
inactive: [7] 94 % of control | [8] 102 % of control | [9] 97 % of control

CS(=O)(=O)N(CC(=O)O)Cc1ccc(F)cc1
inactive: dose: 100.0 mg/kg/injection, schedule: Q01DX009 (ip), vehicle: other 103 % of control | dose: 100.0 mg/kg/injection, schedule: Q04DX003 (ip), vehicle: other 98 % of control | dose: 200.0 mg/kg/injection, schedule: Q01DX009 (ip), vehicle: other 102 % of control | dose: 200.0 mg/kg/injection, schedule: Q04DX003 (ip), vehicle: other 104 % of control | dose: 400.0 mg/kg/injection, schedule: Q01DX009 (ip), vehicle: other 97 % of control | dose: 400.0 mg/kg/injection, schedule: Q04DX003 (ip), vehicle: other 94 % of control

Cc1ccn(C)n1
inactive: dose: 100.0 mg/kg/injection, schedule: Q04DX002 (ip), vehicle: saline 103 % of control | dose: 200.0 mg/kg/injection, schedule: Q04DX002 (ip), vehicle: saline 97 % of control | dose: 400.0 mg/kg/injection, schedule: Q04DX002 (ip), vehicle: saline 93 % of control

Cc1ccc([N+](=O)[O-])c(OC(=O)Nc2ccccc2Cl)c1
inactive: [1] 105 % of control | [10] 100 % of control | [11] 100 % of control | [12] 97 % of control | [13] 107 % of control | [14] 100 % of control

Cc1ccc(CNC(=O)Nc2cccc(C(F)(F)F)c2)cc1C
inactive: dose: 100.0 mg/kg/injection, schedule: Q01DX009 (ip), vehicle: gum acacia 89 % of control | dose: 200.0 mg/kg/injection, schedule: Q01DX009 (ip), vehicle: gum acacia 89 % of control

CC(=O)Oc1ccc(CC(C(=O)O)c2ccccc2)cc1 (stereo not given)
inactive: dose: 100.0 mg/kg/injection, schedule: Q01DX001 (ip), vehicle: saline 107 % of control | [1] 91 % of control | [10] 100 % of control | dose: 200.0 mg/kg/injection, schedule: Q01DX001 (ip), vehicle: saline 101 % of control | [11] 109 % of control | [12] 96 % of control | dose: 400.0 mg/kg/injection, schedule: Q01DX001 (ip), vehicle: saline 113 % of control | [13] 95 % of control | [14] 96 % of control

O=C(NN1C(=O)c2cccc3cccc(c23)C1=O)NN1C(=O)c2cccc3cccc(c23)C1=O
inactive: dose: 100.0 mg/kg/injection, schedule: Q04DX002 (ip), vehicle: Klucel (hydroxypropylcellulose) (HPC) 92 % of control | dose: 200.0 mg/kg/injection, schedule: Q04DX002 (ip), vehicle: Klucel (hydroxypropylcellulose) (HPC) 92 % of control

CSc1nc(N)c(N=Nc2ccc(S(=O)(=O)Nc3nccc(C)n3)cc2)c(=O)[nH]1
inactive: [4] 86 % of control | [5] 97 % of control | [6] 97 % of control

CC1=NOC(=O)C1C(C)(C)C1C(=O)ON=C1C (stereo not given)
inactive: [7] 101 % of control | [8] 95 % of control | [9] 101 % of control

CN(/N=C/C(O)C(O)C(O)CO)c1ccccc1 (stereo not given)
inactive: [2] 95 % of control | [7] 102 % of control and 98 % of control | [3] 90 % of control | [8] 93 % of control and 96 % of control | [9] 94 % of control and 96 % of control

Cc1ccc[n+](CCc2c[nH]c3ccccc23)c1
inactive: [7] 90 % of control

c1ccc(C2=Nc3ccccc3C(c3ccccc3)=Nc3ccccc32)cc1
inactive: dose: 100.0 mg/kg/injection, schedule: Q01DX009 (ip), vehicle: saline with Tween-80 89 % of control | dose: 200.0 mg/kg/injection, schedule: Q01DX009 (ip), vehicle: saline with Tween-80 97 % of control | dose: 400.0 mg/kg/injection, schedule: Q01DX009 (ip), vehicle: saline with Tween-80 89 % of control

CS(=O)(=O)OCCN(CCOS(C)(=O)=O)c1cccc([N+](=O)[O-])c1
inactive: dose: 1.0 mg/kg/injection, schedule: Q01DX001 (ip), vehicle: saline 101 % of control | dose: 2.0 mg/kg/injection, schedule: Q01DX001 (ip), vehicle: saline 101 % of control | dose: 4.0 mg/kg/injection, schedule: Q01DX001 (ip), vehicle: saline 101 % of control | dose: 8.0 mg/kg/injection, schedule: Q01DX001 (ip), vehicle: saline 102 % of control | dose: 152.0 mg/kg/injection, schedule: Q01DX001 (ip), vehicle: saline 113 % of control | dose: 228.0 mg/kg/injection, schedule: Q01DX015 (ip), vehicle: saline 118 % of control | dose: 342.0 mg/kg/injection, schedule: Q01DX001 (ip), vehicle: saline 95 % of control | dose: 342.0 mg/kg/injection, schedule: Q01DX015 (ip), vehicle: saline 92 % of control | dose: 1024.0 mg/kg/injection, schedule: Q01DX001 (ip), vehicle: saline 102 % of control

CC(C)(C)c1cc([N+](=O)[O-])cc([N+](=O)[O-])c1O
inactive: dose: 1.56 mg/kg/injection, schedule: Q01DX009 (ip), vehicle: saline with Tween-80 93 % of control | dose: 1.56 mg/kg/injection, schedule: Q04DX003 (ip), vehicle: saline with Tween-80 100 % of control | dose: 3.13 mg/kg/injection, schedule: Q01DX009 (ip), vehicle: saline with Tween-80 93 % of control | dose: 3.13 mg/kg/injection, schedule: Q04DX003 (ip), vehicle: saline with Tween-80 96 % of control | dose: 6.25 mg/kg/injection, schedule: Q01DX009 (ip), vehicle: saline with Tween-80 96 % of control | dose: 6.25 mg/kg/injection, schedule: Q04DX003 (ip), vehicle: saline with Tween-80 107 % of control

O=C(NC(Cc1ccc(O)cc1)C(=O)O)SCc1ccccc1 (stereo not given)
inactive: dose: 100.0 mg/kg/injection, schedule: Q01DX001 (ip), vehicle: other 100 % of control | dose: 200.0 mg/kg/injection, schedule: Q01DX001 (ip), vehicle: other 102 % of control | dose: 400.0 mg/kg/injection, schedule: Q01DX001 (ip), vehicle: other 102 % of control
